Assays:
HDAC6 = target: T1, HDAC6 (Homo sapiens, UniProt Q9UBN7); experiment: Tubulin acetylation cytoblot assay (A549 cells); format: cell-based; conditions: 17-18 h incubation, tubulin acetylation as marker of HDAC6 inhibition, read-out: Tub-Ac EC50
T1 construct: endogenous in cells; host or cells: A549 cells
T1 sequence (Q9UBN7 1-1215): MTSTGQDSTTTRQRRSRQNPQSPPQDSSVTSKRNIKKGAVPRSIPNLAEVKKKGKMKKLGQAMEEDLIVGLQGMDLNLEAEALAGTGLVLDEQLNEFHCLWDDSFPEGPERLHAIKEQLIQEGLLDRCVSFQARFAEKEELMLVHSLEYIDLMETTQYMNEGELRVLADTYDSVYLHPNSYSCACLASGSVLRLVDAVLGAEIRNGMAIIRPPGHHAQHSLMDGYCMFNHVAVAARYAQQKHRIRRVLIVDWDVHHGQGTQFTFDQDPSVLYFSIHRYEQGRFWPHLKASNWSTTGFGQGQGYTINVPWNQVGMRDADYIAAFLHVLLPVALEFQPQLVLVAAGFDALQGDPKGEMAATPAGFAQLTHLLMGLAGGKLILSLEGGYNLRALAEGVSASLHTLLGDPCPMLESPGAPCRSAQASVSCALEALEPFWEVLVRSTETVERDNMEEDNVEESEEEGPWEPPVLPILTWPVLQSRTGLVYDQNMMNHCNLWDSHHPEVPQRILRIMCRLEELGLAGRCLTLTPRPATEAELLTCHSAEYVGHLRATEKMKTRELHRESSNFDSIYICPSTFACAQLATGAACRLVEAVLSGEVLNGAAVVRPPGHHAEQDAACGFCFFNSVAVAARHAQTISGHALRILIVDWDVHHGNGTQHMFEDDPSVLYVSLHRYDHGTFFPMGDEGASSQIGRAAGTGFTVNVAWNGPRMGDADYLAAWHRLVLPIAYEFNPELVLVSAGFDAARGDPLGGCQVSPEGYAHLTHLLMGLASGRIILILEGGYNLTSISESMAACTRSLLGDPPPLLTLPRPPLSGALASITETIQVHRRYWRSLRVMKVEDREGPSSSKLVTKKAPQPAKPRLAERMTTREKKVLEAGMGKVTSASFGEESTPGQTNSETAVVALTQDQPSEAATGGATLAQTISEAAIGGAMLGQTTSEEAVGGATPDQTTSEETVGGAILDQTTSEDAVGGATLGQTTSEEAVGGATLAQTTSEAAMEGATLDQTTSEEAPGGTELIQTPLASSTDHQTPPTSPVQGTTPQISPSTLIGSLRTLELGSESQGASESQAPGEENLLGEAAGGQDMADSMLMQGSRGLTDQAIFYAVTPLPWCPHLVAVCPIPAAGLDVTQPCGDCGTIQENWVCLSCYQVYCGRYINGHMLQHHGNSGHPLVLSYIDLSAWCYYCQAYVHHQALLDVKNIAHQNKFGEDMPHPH
Outline: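 Cells were exposed to compound for 17-18 h, then fixed with formaldehyde and permeabilized with cold MeOH. They were probed for 4 h at 4° C with anti-acetylated tubulin plus HRP anti-mouse IgG (each 1:750), and read by ECL luminescence. EC50 values came from curves normalized to top and bottom controls.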

[1] = system: p21 promoter-luciferase construct; experiment: p21 reporter gene induction (HeLa cells, p21 promoter-luciferase construct); conditions: for p21 RP3: relative gene level of p21 compared to MS275 at 3 μM; for p21 RP10: relative level of p21 compared to MS275 at 10 μM; for p21 RP30: relative level of p21 compared to MS275 at 30 μM;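 as to all read-outs here: transfected HeLa cells exposed to compound for 15 h, luciferase luminescence read from lysates, p21 promoter lacks p53 site, proxy for cellular HDAC1/2/3 inhibition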
Protocol: As a surrogate for in-cell HDAC1/2/3 inhibition, p21 induction was used as a counterscreen to evaluate the selectivity of the compounds in the present invention toward HDAC6 or HDAC8.
The novel compounds of the present invention were tested for their ability to induce p21 gene expression using a reporter gene assay involving HeLa cells transfected with a p21 promoter-luciferase construct. The p21 promoter contained the Sp1/Sp3 binding site for HDAC but not the upstream p53 binding site. Briefly, the day before transfection, HeLa cells were seeded at 11,000 cells/well in a 96-well culture plate and incubated at 37° C. in 5% CO2 overnight. A transfection media was prepared prior to transfection according to the following procedure: (1) 5 μl serum-free DMEM, 0.15 μl Fugene 6 reagent, 40 ng p21-luc, 10 ng GFP were mixed gently and incubated at rt for 30 minutes; (2), then 98 μl DMEM (with 10% FBS, 1% penicillin and streptomycin) was added to the DNA: Fugene 6 reagent complex and mixed gently. For transfection, the medium was removed and replaced with 100 μl/well transfection media which was prepared according to the procedure above. After incubating the cells for 24 hours at 37° C. in 5% CO2, fresh media and test compounds were added to the wells and the cells further incubated for 15 hours at 37° C. in 5% CO2. Cells were lysed by adding 80 μl/well of a cell culture lysis reagent (Promega). 50 μl of each lysate was taken for GFP detection using an excitation wavelength of 486 nm and detection at 527 nm. 100 μl luciferase assay reagent (Promega) was then added to every 20 μl cell lysate for luminometer detection.

recombinant human HDAC8 = target: T2, recombinant human HDAC8 (Homo sapiens, UniProt Q9BY41); experiment: HDAC8 inhibition: recombinant HDAC8 fluorometric assay; format: biochemical; conditions: recombinant human HDAC8, substrate Ac-Arg-His-Lys-Lys(ε-acetyl)-AMC; read-out: HDAC8 IC50
T2 construct: made in house; host or cells: insect cells
T2 sequence (Q9BY41 1-377): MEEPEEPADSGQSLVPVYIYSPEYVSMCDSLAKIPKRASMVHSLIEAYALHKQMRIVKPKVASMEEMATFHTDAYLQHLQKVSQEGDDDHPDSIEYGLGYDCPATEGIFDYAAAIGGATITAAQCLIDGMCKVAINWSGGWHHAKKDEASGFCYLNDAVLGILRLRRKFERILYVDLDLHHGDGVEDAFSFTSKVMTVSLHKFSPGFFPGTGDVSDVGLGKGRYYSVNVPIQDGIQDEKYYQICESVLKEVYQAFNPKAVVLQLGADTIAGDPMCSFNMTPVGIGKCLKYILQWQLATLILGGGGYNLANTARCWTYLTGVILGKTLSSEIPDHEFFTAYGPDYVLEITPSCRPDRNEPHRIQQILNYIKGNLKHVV
Outline: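 Recombinant human HDAC8 from insect cells was preincubated with compound for 15 min at rt, then given Ac-Arg-His-Lys-Lys(ε-acetyl)-AMC substrate for 30 min at rt. IC50 came from normalized percent inhibition with curve fitting.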

OPM-2 = experiment: WST anti-proliferative assay, multiple myeloma cell line OPM-2; format: cell-based; conditions: Homo sapiens; OPM-2 cells, 72 hours, CCK-8
Source text: (§1) WST Anti-Proliferative Assay and Assessment of Growth Inhibitory of Novel Compounds in Multiple Myeloma Cell Lines.

RPMI-8226 = experiment: WST anti-proliferative assay, multiple myeloma cell line RPMI-8226; format: cell-based; conditions: Homo sapiens, RPMI8226 cells, 72 hours, CCK-8
Source text: as §1

SMILES	EC50 (HDAC6) [nM]	p21 RP3 [1]	p21 RP10 [1]	p21 RP30 [1]	IC50 (recombinant human HDAC8) [nM]	IC50 (OPM-2) [nM]	IC50 (RPMI-8226) [nM]
O=C(NO)c1ccc(NC2CCN(c3ccc(Cl)cc3)C2=O)cc1 (stereo not drawn) [Example 7, 4-[1-(4-Chloro-phenyl)-2-oxo-pyrrolidin-3-ylamino]-N-hydroxy-benzamide]	1410	−0.08	0.12	0.16	550	5560	8790
CC(C)(c1ccccc1)N1CCC(Nc2ccc(C(=O)NO)cc2)C1=O (stereo not drawn) [Example 47, N-Hydroxy-4-[1-(1-methyl-1-phenyl-ethyl)-2-oxo-pyrrolidin-3-ylamino]-benzamide]	3020	0.05	0.09	0.29	520	3620	4050
O=C(NO)c1ccc(NC2CCN(c3ccc(Cl)cc3)C2)cc1 (stereo not drawn) [Example 80, 4-[1-(4-Chloro-phenyl)-pyrrolidin-3-ylamino]-N-hydroxy-benzamide]	4260	0.37	0.08	−0.05	4650	–	–
O=C(NO)c1ccc(NC2CCN(c3c(Cl)cccc3Cl)C2)cc1 (stereo not drawn) [Example 81, 4-[1-(2,6-Dichloro-phenyl)-pyrrolidin-3-ylamino]-N-hydroxy-benzamide]	720	0.08	−0.04	−0.01	1920	–	–
O=C(NO)c1ccc(NC2CCN(c3ccc(Cl)cc3Cl)C2)cc1 (stereo not drawn) [Example 82, 4-[1-(2,4-Dichloro-phenyl)-pyrrolidin-3-ylamino]-N-hydroxy-benzamide]	1430	0.14	−0.08	−0.06	2360	–	–
O=C(NO)c1ccc(NC2CCN(c3ncccn3)C2)cc1 (stereo not drawn) [Example 83, N-Hydroxy-4-(1-pyrimidin-2-yl-pyrrolidin-3-ylamino)-benzamide]	1110	0.37	0.11	0.08	1210	–	–
O=C(NO)c1ccc(NC2CCN(S(=O)(=O)c3ccc(F)cc3)C2)cc1 (stereo not drawn) [Example 85, 4-[1-(4-Fluoro-benzenesulfonyl)-pyrrolidin-3-ylamino]-N-hydroxy-benzamide]	7310	0.35	0.10	0.05	1120	–	–
CC1(Nc2ccc(C(=O)NO)cc2)C(=O)N(Cc2ccccc2)c2ccccc21 (stereo not drawn) [Example 91, 4-(1-Benzyl-3-methyl-2-oxo-2,3-dihydro-1H-indol-3-ylamino)-N-hydroxy-benzamide]	5230	2.06	2.66	0.84	1280	–	–
CC1(Nc2ccc(C(=O)NO)cc2)C(=O)N(Cc2ccccc2Cl)c2ccccc21 (stereo not drawn) [Example 92]	330	0.56	0.20	0.40	1740	–	–
CC1(Nc2ccc(C(=O)NO)cc2)C(=O)N(Cc2cccc(Cl)c2)c2ccccc21 (stereo not drawn) [Example 93, 4-[1-(3-chloro-benzyl)-3-methyl-2-oxo-2,3-dihydro-1H-indol-3-ylamino)-N-hydroxy-benzamide]	410	0.58	0.12	0.05	1920	–	–
CC1(Nc2ccc(C(=O)NO)cc2)C(=O)N(c2ccccc2)c2ccccc21 (stereo not drawn) [Example 95, N-hydroxy-4-(3-methyl-2-oxo-1-phenyl-2,3-dihydro-1H-indol-3-ylamino)-benzamide]	80	0.58	0.39	0.60	850	–	–
CC1(Nc2ccc(C(=O)NO)cc2)C(=O)N(c2cccc(Cl)c2)c2ccccc21 (stereo not drawn) [Example 96, 4-[1-(3-chloro-phenyl)-3-methyl-2-oxo-2,3-dihydro-1H-indol-3-ylamino)-N-hydroxy-benzamide]	320	0.86	1.34	0.02	1400	–	–
CC1(Nc2ccc(C(=O)NO)cc2)C(=O)N(c2ccc(Cl)cc2)c2ccc(F)cc21 (stereo not drawn) [Example 97, 4-[1-(4-Chloro-phenyl)-5-fluoro-3-methyl-2-oxo-2,3-dihydro-1H-indol-3-ylamino]-N-hydroxy-benzamide]	200	2.39	3.56	0.07	2080	–	–
CC1(Nc2ccc(C(=O)NO)cc2)C(=O)N(c2cccc(Cl)c2)c2ccc(F)cc21 (stereo not drawn) [Example 98, 4-[1-(3-Chloro-phenyl)-5-fluoro-3-methyl-2-oxo-2,3-dihydro-1H-indol-3-ylamino]-N-hydroxy-benzamide]	190	2.13	3.06	0.00	1690	–	–
CC1(Nc2ccc(C(=O)NO)cc2)C(=O)N(Cc2ccccc2Cl)c2ccc(F)cc21 (stereo not drawn) [Example 99, 4-[1-(2-Chloro-benzyl)-5-fluoro-3-methyl-2-oxo-2,3-dihydro-1H-indol-3-ylamino]-N-hydroxy-benzamide]	150	0.95	0.62	0.00	1230	–	–
CC1(Nc2ccc(C(=O)NO)cc2)C(=O)N(c2cccc(Cl)c2)c2ccncc21 (stereo not drawn) [Example 100, 4-[1-(3-Chloro-phenyl)-3-methyl-2-oxo-2,3-dihydro-1H-pyrrolo[3,2-c]pyridin-3-ylamino]-N-hydroxy-benzamide]	710	0.45	0.13	0.31	720	–	–

Reference: patent publication US8404738B2 (Hoffmann-La Roche Inc., priority 2011, dated 2013)
